The nature of assay [1]: (§1) Measurement of Sodium Ion Channel Blocking Effects: In order to measure the sodium ion channel blocking effect, an IonFlux16 Auto patch clamp system (Fluxion, Inc.) and a plate for exclusive use were used. The cells were distributed in an extracellular solution (4 mM KCl, 138 mM NaCl, 1 mM MgCl2, 1.8 mM CaCl2, 5.6 mM glucose, 10 mM HEPES, pH 7.45), and then dispensed in the specified region of the plate, and each of the prepared compound samples was diluted at various concentrations, and then dispensed in the specified region of the plate. Type of assay: cell-based. On the technique in general: In patch-clamp work, channel activity is measured electrically.

Assay [2] in a line: as §1. It is filed as cell-based. This is another data set of the same source.

What is called IC50 is the concentration at which inhibition is half-maximal.

Molecule `CNC1CCN(c2cc(F)ccc2Nc2cc(F)c(S(=O)(=O)Nc3ccncn3)cc2Cl)C1` (centres undefined) registered an IC50 in assay [1] of 250 nM.

Turning to `CNCCN(C)c1cc(C(F)(F)F)ccc1Nc1cc(F)c(S(=O)(=O)Nc2ncc(F)cn2)cc1Cl`, the results for the IC50 in assay [1] and in assay [2] were 60 nM and more than 10000 nM, respectively.

Take `CNC1CCN(c2cc(F)ccc2Nc2cc(F)c(S(=O)(=O)Nc3ncns3)cc2Cl)C1` (centres undefined): the midpoint of inhibition in assay [1], the IC50, lay at 1400 nM.

`CNC1CCN(c2cc(F)ccc2Nc2cc(F)c(S(=O)(=O)Nc3ccn(C)n3)cc2Cl)C1` (centres undefined) gave an IC50 in assay [1] of 390 nM.

For the molecule `C[C@@H]1CNCCN1c1cc(Cl)ccc1Nc1cc(F)c(S(=O)(=O)Nc2cscn2)cc1Cl`, the IC50 in assay [1] is 103 nM; in assay [2], 6720 nM.

Consider `CNCCN(C)c1ccccc1Nc1cc(F)c(S(=O)(=O)Nc2ncc(Cl)s2)cc1Cl`, for which, in assay [1], inhibition was half-maximal at 4 nM (IC50).

As to `CNC1CCN(c2c(F)cccc2Nc2cc(F)c(S(=O)(=O)Nc3cscn3)cc2Cl)C1` (centres undefined), the figures for the IC50 in assay [1] and in assay [2] were 86 nM and more than 10000 nM, respectively.

With `CNCCN(C)c1cc(OC)ccc1Nc1cc(F)c(S(=O)(=O)Nc2ncc(F)cn2)cc1Cl`, 470 nM corresponded to half-maximal inhibition in assay [1] (IC50).

As for `CNCCN(C)c1cc(C#N)ccc1Nc1cc(F)c(S(=O)(=O)Nc2cscn2)cc1Cl`, the 50% inhibitory concentration (IC50) in assay [1] is 120 nM; in assay [2], more than 10000 nM.

Regarding `CN[C@@H]1CCCN(c2cc(F)ccc2Nc2ccc(S(=O)(=O)Nc3cscn3)cc2Cl)C1`, the IC50 in assay [1] is 49 nM; in assay [2], more than 10000 nM.

Regarding `CNC1CCN(c2cc(F)ccc2Nc2cc(F)c(S(=O)(=O)Nc3cc(C)on3)cc2Cl)C1` (centres undefined), the IC50 in assay [1] is 360 nM; in assay [2] it was more than 10000 nM.

For `CNCCN(C)c1cc(F)ccc1Nc1cc(F)c(S(=O)(=O)Nc2ncc(C)s2)cc1Cl`, in assay [1], the IC50 stood at 50 nM.

Consider `CNCCN(C)c1cc(C#N)ccc1Nc1cc(F)c(S(=O)(=O)Nc2ncc(F)cn2)cc1Cl`, for which the IC50 in assay [1] is 1090 nM; in assay [2], more than 10000 nM.

With `CN1CCN(c2cc(OC(F)(F)F)ccc2Nc2cc(F)c(S(=O)(=O)Nc3cscn3)cc2Cl)CC1`, the figures for the IC50 in assay [1] and in assay [2] were 28 nM and more than 10000 nM, respectively.

`CNC1CCN(c2ccccc2Nc2ccc(S(=O)(=O)Nc3cscn3)c(F)c2)C1` (centres undefined): the IC50 in assay [1] was 53 nM; in assay [2] it was more than 10000 nM.

Turning to `CNC1CCN(c2cc(C(F)(F)F)ccc2Nc2ccc(S(=O)(=O)Nc3cscn3)c(F)c2)C1` (centres undefined), the IC50 was 58 nM in assay [1] and more than 10000 nM in assay [2].

`CNCCN(C)c1cc(Cl)ccc1Nc1cc(F)c(S(=O)(=O)Nc2ncc(F)cn2)cc1Cl` gave an IC50 in assay [1] of 120 nM.

The molecule `CNCCN(C)c1cc(OC)ccc1Nc1cc(F)c(S(=O)(=O)Nc2ncc(F)s2)cc1Cl` gave an IC50 in assay [1] of 184 nM.

`CNCCN(C)c1cc(Cl)ccc1Nc1cc(F)c(S(=O)(=O)Nc2cscn2)cc1Cl`: the IC50 in assay [1] was 50 nM.

In turn, `CNCCN(C)c1cc(F)ccc1Nc1cc(F)c(S(=O)(=O)Nc2ncco2)cc1Cl` yielded an IC50 in assay [1] of 360 nM.

`CN(C)CCN(C)c1cc(F)ccc1Nc1cc(F)c(S(=O)(=O)Nc2ncc(Cl)s2)cc1Cl` came in with an IC50 in assay [1] of 60 nM.

Turning to `CNCCN(C)c1cc(Cl)ccc1Nc1cc(F)c(S(=O)(=O)Nc2nccs2)cc1Cl`, the half-inhibitory concentration (IC50) in assay [1] was 20 nM.

In turn, `CNC1CCN(c2cc(F)ccc2Nc2cc(F)c(S(=O)(=O)Nc3cscn3)cc2Cl)C1` (centres undefined) gave an IC50 in assay [2] of more than 10000 nM.

Consider `CNC1CCN(c2ccccc2Nc2ccc(S(=O)(=O)Nc3cscn3)cc2Cl)C1` (centres undefined), for which the results for the IC50 in assay [1] and in assay [2] were 13 nM and more than 10000 nM, respectively.

As to `CNC1CCN(c2cc(F)ccc2Nc2ccc(S(=O)(=O)Nc3cscn3)cc2)C1` (centres undefined), the figures for the IC50 in assay [1] and in assay [2] were 396 nM and more than 10000 nM, respectively.

In the case of `CNC1CCN(c2cc(F)ccc2Nc2cc(F)c(S(=O)(=O)Nc3cnccn3)cc2Cl)C1` (centres undefined), the IC50 in assay [1] was 300 nM; in assay [2], more than 10000 nM.

Take `CNCCN(C)c1ccccc1Nc1cc(F)c(S(=O)(=O)Nc2cscn2)cc1Cl`: the IC50 in assay [1] was 40 nM; in assay [2] it was more than 10000 nM.

For `CN(C)CCN(C)c1ccccc1Nc1cc(F)c(S(=O)(=O)Nc2ncc(Cl)s2)cc1Cl`, in assay [1], 3670 nM corresponded to half-maximal inhibition (IC50).

On to `C[C@H]1CN(c2cc(Cl)ccc2Nc2cc(F)c(S(=O)(=O)Nc3cscn3)cc2Cl)CCN1`, for which the IC50 was 1500 nM in assay [1] and more than 10000 nM in assay [2].

For `CNCCN(C)c1cc(F)ccc1Nc1cc(F)c(S(=O)(=O)Nc2ncc(F)s2)cc1Cl`, the IC50 came out at 9 nM in assay [1] and 1830 nM in assay [2].

Consider `CNCCN(C)c1cc(Cl)ccc1Nc1cc(F)c(S(=O)(=O)Nc2ccc(F)cn2)cc1Cl`, for which the IC50 in assay [1] came to 80 nM.

`CN[C@@H]1CCCN(c2cc(F)ccc2Nc2cc(F)c(S(=O)(=O)Nc3cscn3)cc2Cl)C1`: the IC50 is 66 nM in assay [1] and more than 10000 nM in assay [2].

In the case of `CNCCN(C)c1ccccc1Nc1cc(F)c(S(=O)(=O)Nc2ncc(F)s2)cc1Cl`, in assay [1], the IC50 was found to be 27 nM.

Turning to `CNCCN(C)c1cc(F)ccc1Nc1cc(F)c(S(=O)(=O)Nc2ccccn2)cc1Cl`, the IC50 in assay [1] is 110 nM; in assay [2] it was more than 10000 nM.

Consider `CNCCN(C)c1cc(F)ccc1Nc1cc(F)c(S(=O)(=O)Nc2nccs2)cc1Cl`, for which the values for the IC50 in assay [1] and in assay [2] were 20 nM and more than 10000 nM, respectively.

In the case of `CNCCN(C)c1ccccc1Nc1cc(F)c(S(=O)(=O)Nc2cc(C(C)(C)C)on2)cc1Cl`, the IC50 in assay [1] was more than 10000 nM.

In the case of `CNCCN(C)c1cc(OC)ccc1Nc1cc(F)c(S(=O)(=O)Nc2ncc(Cl)s2)cc1Cl`, it took 6 nM to reach half-maximal inhibition in assay [1] (IC50).

Molecule `CN(C)CCN(C)c1cc(F)ccc1Nc1cc(F)c(S(=O)(=O)Nc2nccs2)cc1Cl` returned a 50% inhibitory concentration (IC50) in assay [1] of 240 nM.

For the molecule `CNCCN(C)c1ccccc1Nc1cc(F)c(S(=O)(=O)Nc2ncc(F)cn2)cc1Cl`, the IC50 is 100 nM in assay [1] and more than 10000 nM in assay [2].

The molecule `CNCCN(C)c1ccccc1Nc1cc(F)c(S(=O)(=O)Nc2cc(C)on2)cc1Cl` yielded a half-inhibitory concentration (IC50) in assay [1] of 20 nM.

Turning to `CNC1CCN(c2cc(F)ccc2Nc2cc(F)c(S(=O)(=O)Nc3cncnc3)cc2Cl)C1` (centres undefined), the IC50 in assay [1] and in assay [2] was more than 10000 nM throughout.

In the case of `CNC1CCN(c2cc(OC)ccc2Nc2cc(F)c(S(=O)(=O)Nc3cscn3)cc2Cl)C1` (centres undefined), the figures for the IC50 in assay [1] and in assay [2] were 12 nM and more than 10000 nM, respectively.

Turning to `CNC1CCN(c2ccccc2Nc2ccc(S(=O)(=O)Nc3cscn3)cc2)C1` (centres undefined), the IC50 in assay [1] is 51 nM; in assay [2], more than 10000 nM.

As for `CNC1CCN(c2cc(Cl)ccc2Nc2cc(F)c(S(=O)(=O)Nc3cscn3)cc2Cl)C1` (centres undefined), the IC50 in assay [1] is 26 nM; in assay [2], more than 10000 nM.

In the case of `CNCCN(C)c1cc(F)ccc1Nc1cc(F)c(S(=O)(=O)Nc2cc(C(C)(C)C)on2)cc1Cl`, it took 190 nM to reach half-maximal inhibition in assay [1] (IC50).

As to `CNCCN(C)c1cc(F)ccc1Nc1cc(F)c(S(=O)(=O)Nc2ncc(Cl)s2)cc1Cl`, the values for the IC50 in assay [1] and in assay [2] were 8 nM and 5540 nM, respectively.

Turning to `CNC1CCN(c2cc(F)ccc2Nc2cc(F)c(S(=O)(=O)Nc3ncc(F)cn3)cc2Cl)C1` (centres undefined), the IC50 is 110 nM in assay [1] and more than 10000 nM in assay [2].

With `CNCCN(C)c1cc(C#N)ccc1Nc1cc(F)c(S(=O)(=O)Nc2ccc(F)cn2)cc1Cl`, the IC50 in assay [1] was 230 nM; in assay [2] it was more than 10000 nM.

With `CNCCN(C)c1cc(C(F)(F)F)ccc1Nc1cc(F)c(S(=O)(=O)Nc2cscn2)cc1Cl`, the IC50 in assay [1] came to 30 nM; in assay [2], 8200 nM.

Molecule `CNCCN(C)c1ccccc1Nc1cc(F)c(S(=O)(=O)Nc2cc(C)[nH]n2)cc1Cl` registered an IC50 in assay [1] of more than 10000 nM.

Consider `CNCCN(C)c1cc(F)ccc1Nc1cc(F)c(S(=O)(=O)Nc2cc(C)[nH]n2)cc1Cl`, for which the IC50 in assay [1] amounted to 240 nM.

These data come from ChEMBL document CHEMBL5726731, “Substituted benzenesulfonamides as sodium channel blockers” (2019).
